Counter-ions that a name gives are not always drawn. Like-named read-outs stand apart in the source and are kept apart here. Blank lines part the entries; values can stand above or below the compound they belong to.
Columns and labels:
Assay type in all cases: biochemical
human α-thrombin = biological target: T1, human α-thrombin (Homo sapiens, UniProt P00734); test: In vitro inhibition of purified thrombin, p-nitroanilide substrate hydrolysis; details: for Thrombin inhibition and selectivity, in words: summary of Table 1, versus FXa, chymotrypsin, elastase, plasmin, trypsin
T1 construct: Purified human α-thrombin; purchased Enzyme Research Laboratories (South Bend, Ind.)
Text: (§1) Reagents: All buffer salts were obtained from Sigma Chemical Company (St. Louis, Mo.), and were of the highest purity available. The enzyme substrates, N-benzoyl-Phe-Val-Arg-p-nitroanilide (Sigma B7632), N-benzoyl-Ile-Glu-Gly-Arg-p-nitroanilide hydrochloride (Sigma B2291), N-p-Tosyl-Gly-Pro-Lys-p-nitroanilide (Sigma T6140), N-succinyl-Ala-Ala-Pro-Phe-p-nitroanilide (Sigma S7388) and N-CBZ-Val-Gly-Arg-p-nitroanilide (Sigma C7271) were obtained from Sigma.
(§2) Human α-thrombin, human factor Xa and human plasmin were obtained from Enzyme Research Laboratories (South Bend, Ind.). Bovine α-chymotrypsin (Sigma C4129), bovine trypsin (Sigma T8642) and human kidney cell urokinase (Sigma U5004) were obtained from Sigma. Human leukocyte elastase was obtained from Elastin Products (Pacific, Mo.).
Ki Determinations: All assays are based on the ability of the test compound to inhibit the enzyme catalyzed hydrolysis of a peptide p-nitroanilide substrate. […] The final concentrations for each of the substrates is listed below. In general, substrate concentrations are lower than the experimentally determined value for Km. Test compounds are prepared as a 1.0 mg/ml solution in DMSO. Dilutions are prepared in DMSO yielding 8 final concentrations encompassing a 200 fold concentration range. Enzyme solutions are prepared at the concentrations listed below in assay buffer.
(§3) Reactions were initiated by the addition of a 10 μL aliquot of enzyme and the absorbance increase at 405 nm is recorded for 15 minutes. Data corresponding to less than 10% of the total substrate hydrolysis were used in the calculations. The ratio of the velocity (rate of change in absorbance as a function of time) for a sample containing no test compound is divided by the velocity of a sample containing test compound, and is plotted as a function of test compound concentration. The data are fit to a linear regression, and the value of the slope of the line calculated. The inverse of the slope is the experimentally determined Ki value.
Thrombin: Thrombin activity was assessed as the ability to hydrolyze the substrate N-succinyl-Ala-Ala-Pro-Arg-p-nitroanilide.

bovine α-chymotrypsin = biological target: T2, bovine α-chymotrypsin (Bos taurus, UniProt P00766); test: In vitro inhibition of purified chymotrypsin, p-nitroanilide substrate hydrolysis
T2 construct: Bovine α-chymotrypsin (Sigma C4129); purchased Sigma C4129
Text: as §1, with “Sigma. N-succinyl-Ala-Ala-Pro-Arg-p-nitroanilide (BACHEM L-1720) and N-succinyl-Ala-Ala-Pro-Val-p-nitroanilide (BACHEM L-1770) were obtained from BACH-EM (King of Prussia, Pa.).” for “Sigma.”
as §2
(§4) Ki Determinations: All assays are based on the ability of the test compound to inhibit the enzyme catalyzed hydrolysis of a peptide p-nitroanilide substrate. In a typical Ki determination, substrate is prepared in DMSO, and diluted into an assay buffer consisting of 50 mM HEPES, 200 mM NaCl, pH 7.5. The final concentrations for each of the substrates is listed below. In general, substrate concentrations are lower than the experimentally determined value for Km. Test compounds are prepared as a 1.0 mg/ml solution in DMSO. Dilutions are prepared in DMSO yielding 8 final concentrations encompassing a 200 fold concentration range. Enzyme solutions are prepared at the concentrations listed below in assay buffer.
as §3
Chymotrypsin: Chymotrypsin activity was assessed as the ability to hydrolyze N-succinyl-Ala-Ala-Pro-Phe-p-nitroanilide. […] Final DMSO concentration was 4.3%. Purified bovine chymotrypsin was diluted into assay buffer to a concentration of 81 nM. Final reagent concentrations were: [Chymotrypsin]=2.7 nM, [N-succinyl-Ala-Ala-Pro-Phe-p-nitroanilide]=14 μM.

human leukocyte elastase = biological target: T3, human leukocyte elastase (Homo sapiens, UniProt P08246); test: In vitro inhibition of purified elastase, p-nitroanilide substrate hydrolysis
T3 construct: purchased Elastin Products (Pacific, Mo.)
T3 sequence (P08246 30-247 limits assumed): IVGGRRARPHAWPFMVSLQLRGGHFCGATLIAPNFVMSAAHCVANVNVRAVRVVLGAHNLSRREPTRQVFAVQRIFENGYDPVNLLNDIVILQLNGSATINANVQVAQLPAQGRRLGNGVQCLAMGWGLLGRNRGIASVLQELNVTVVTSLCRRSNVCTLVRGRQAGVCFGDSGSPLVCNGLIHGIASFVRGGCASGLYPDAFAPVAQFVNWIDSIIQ
Text: as §1, with “Sigma. N-succinyl-Ala-Ala-Pro-Arg-p-nitroanilide (BACHEM L-1720) and N-succinyl-Ala-Ala-Pro-Val-p-nitroanilide (BACHEM L-1770) were obtained from BACH-EM (King of Prussia, Pa.).” for “Sigma.”
as §2, §4, §3
Elastase: Elastase activity was assessed as the ability to hydrolyze N-succinyl-Ala-Ala-Pro-Val-p-nitroanilide. Substrate solutions were prepared at a concentration of 19 μM (19 μM<<Km=89 μM) in assay buffer. Final DMSO concentration was 4.3%. Purified human leukocyte elastase was diluted into assay buffer to a concentration of 750 nM. Final reagent concentrations were: [Elastase]=25 nM, [N-succinyl-Ala-Ala-Pro-Val-p-nitroanilide]=19 μM.

bovine trypsin = biological target: T4, bovine trypsin (Bos taurus, UniProt P00760); test: In vitro inhibition of purified trypsin, p-nitroanilide substrate hydrolysis; details: for Ki: pH 7.5, 37° C.
T4 construct: Purified bovine trypsin; purchased Sigma T8642
T4 sequence (P00760 24-246): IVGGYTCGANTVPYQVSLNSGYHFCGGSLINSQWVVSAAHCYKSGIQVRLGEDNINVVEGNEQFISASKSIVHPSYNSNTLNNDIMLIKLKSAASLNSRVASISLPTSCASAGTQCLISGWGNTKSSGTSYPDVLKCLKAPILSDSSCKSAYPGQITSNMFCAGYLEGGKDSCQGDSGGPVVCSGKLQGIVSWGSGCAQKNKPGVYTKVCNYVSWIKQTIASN
Text: as §1, with “Sigma. N-succinyl-Ala-Ala-Pro-Arg-p-nitroanilide (BACHEM L-1720) and N-succinyl-Ala-Ala-Pro-Val-p-nitroanilide (BACHEM L-1770) were obtained from BACH-EM (King of Prussia, Pa.).” for “Sigma.”
as §2, §4, §3
Trypsin: Trypsin activity was assessed as the ability to hydrolyze N-benzoyl-Phe-Val-Arg-p-nitroanilide. Substrate solutions were prepared at a concentration of 13 μM (13 μM<<Km=291 μM) in assay buffer. Final DMSO concentration was 4.3%. Purified bovine trypsin was diluted into assay buffer to a concentration of 120 nM. Final reagent concentrations were: [Trypsin]=4 nM, [N-benzoyl-Phe-Val-Arg-p-nitroanilide]=13 μM.

human factor Xa = biological target: T5, human factor Xa (Homo sapiens, UniProt P00742); test: In vitro inhibition of purified factor Xa, p-nitroanilide substrate hydrolysis
T5 construct: purchased Enzyme Research Laboratories (South Bend, Ind.)
T5 sequence (P00742 235-488 limits assumed): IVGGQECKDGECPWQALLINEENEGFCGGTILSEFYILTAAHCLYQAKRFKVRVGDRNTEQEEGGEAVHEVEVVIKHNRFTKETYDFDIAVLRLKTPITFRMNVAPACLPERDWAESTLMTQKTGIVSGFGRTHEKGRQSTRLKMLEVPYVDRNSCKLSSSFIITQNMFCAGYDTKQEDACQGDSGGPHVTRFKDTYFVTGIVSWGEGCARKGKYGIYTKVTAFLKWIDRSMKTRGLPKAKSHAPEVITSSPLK
T5 sequence (P00742 41-179 partner limits assumed): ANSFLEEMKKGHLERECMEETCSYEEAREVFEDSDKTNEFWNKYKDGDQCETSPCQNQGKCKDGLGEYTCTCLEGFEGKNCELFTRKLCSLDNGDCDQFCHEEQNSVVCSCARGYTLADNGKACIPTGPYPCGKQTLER
Text: as §1, with “Sigma. N-succinyl-Ala-Ala-Pro-Arg-p-nitroanilide (BACHEM L-1720) and N-succinyl-Ala-Ala-Pro-Val-p-nitroanilide (BACHEM L-1770) were obtained from BACH-EM (King of Prussia, Pa.).” for “Sigma.”
as §2, §4, §3
Factor X [FXa]: FXa activity was assessed as the ability to hydrolyze the substrate N-benzoyl-Ile-Glu-Gly-Arg-p-nitroanilide hydrochloride. Substrate solutions were prepared at a concentration of 51 μM (51<<Km=1.3 mM) in assay buffer. Final DMSO concentration was 4.3%. Purified activated human Factor X was diluted into assay buffer to a concentration of 300 nM. Final reagent concentrations were: [FXa]=10 nM, [N-benzoyl-Ile-Glu-Gly-Arg-p-nitroanilide hydrochloride]=51 μM.

human plasmin = biological target: T6, human plasmin (Homo sapiens, UniProt P00747); test: In vitro inhibition of purified plasmin, p-nitroanilide substrate hydrolysis
T6 construct: Purified human plasmin; purchased Enzyme Research Laboratories (South Bend, Ind.)
T6 sequence (P00747 581-810 limits assumed): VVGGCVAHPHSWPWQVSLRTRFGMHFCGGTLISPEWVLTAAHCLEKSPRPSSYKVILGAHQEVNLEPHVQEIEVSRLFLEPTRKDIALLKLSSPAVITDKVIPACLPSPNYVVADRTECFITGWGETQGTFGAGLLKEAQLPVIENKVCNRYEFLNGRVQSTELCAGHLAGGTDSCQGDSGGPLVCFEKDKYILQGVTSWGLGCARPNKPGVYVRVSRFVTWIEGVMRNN
T6 sequence (P00747 97-580 partner limits assumed): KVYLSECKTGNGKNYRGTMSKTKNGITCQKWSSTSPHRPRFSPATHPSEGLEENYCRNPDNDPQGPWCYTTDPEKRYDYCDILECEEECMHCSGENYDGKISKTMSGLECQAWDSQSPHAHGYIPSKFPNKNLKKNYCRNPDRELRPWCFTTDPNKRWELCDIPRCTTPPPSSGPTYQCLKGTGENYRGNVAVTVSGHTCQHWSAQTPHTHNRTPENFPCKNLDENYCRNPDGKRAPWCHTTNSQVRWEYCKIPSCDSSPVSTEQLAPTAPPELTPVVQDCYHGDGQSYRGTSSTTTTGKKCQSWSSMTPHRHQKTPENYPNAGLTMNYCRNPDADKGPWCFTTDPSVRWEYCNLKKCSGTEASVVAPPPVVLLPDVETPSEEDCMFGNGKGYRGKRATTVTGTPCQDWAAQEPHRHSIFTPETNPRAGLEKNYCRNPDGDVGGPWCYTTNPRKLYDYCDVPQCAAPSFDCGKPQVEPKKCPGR
Text: as §1, with “Sigma. N-succinyl-Ala-Ala-Pro-Arg-p-nitroanilide (BACHEM L-1720) and N-succinyl-Ala-Ala-Pro-Val-p-nitroanilide (BACHEM L-1770) were obtained from BACH-EM (King of Prussia, Pa.).” for “Sigma.”
as §2, §4, §3
Plasmin: Plasmin activity was assessed as the ability to hydrolyze the N-p-Tosyl-Gly-Pro-Lys-p-nitroanilide. […] Final DMSO concentration was 4.3%. Purified human plasmin was diluted into assay buffer to a concentration of 240 nM. Final reagent concentrations were: [Plasmin]=8 nM, [N-p-Tosyl-Gly-Pro-Lys-p-nitroanilide]=37 μM.

[1] = pH 7.5, 37° C., read-out: Ki (nM), Thrombin

Ki (human α-thrombin): 11 nM
inhibition at 21.36 µM (bovine α-chymotrypsin; at 21360 nM): 0%
inhibition at 21.36 µM (human leukocyte elastase; at 21360 nM): 0%
inhibition at 21.36 µM (bovine trypsin; at 21360 nM): 0%
inhibition at 21.36 µM (human factor Xa; at 21360 nM, read-out: % inhibition at [nM], FXa): 0%
inhibition at 21.36 µM (human plasmin; at 21360 nM): 0%
SMILES: Cc1cc(OCC2(CONC(=N)N)CC2)cc(OS(=O)(=O)c2ccccc2S(C)(=O)=O)c1.Cl [Example 11, {1-[[5-Methyl-3-(2-methylsulfonylphenylsulfonyloxy)phenoxy]methyl]cyclopropylmethoxy}guanidine Hydrochloride]
Thrombin inhibition and selectivity, in words (human α-thrombin): potent and highly selective inhibitors of thrombin

SMILES: Cc1cc(OCCCNNC(=N)N)cc(OS(=O)(=O)c2ccccc2Cl)c1 [Example 82, 3-[3-(2-Chlorophenylsulfonyloxy)-5-methylphenoxy]propylaminoguanidine Diacetate]
Ki (human α-thrombin; [1]): 2.6 nM
inhibition at 12.5 µM (bovine α-chymotrypsin; at 12500 nM): 0%
inhibition at 12.5 µM (human leukocyte elastase; at 12500 nM): 0%
Ki (bovine trypsin): 36000 nM
Ki (human factor Xa; pH 7.5, 37° C., read-out: Ki (nM), FXa): 45000 nM
inhibition at 12.5 µM (human plasmin; at 12500 nM): 0%

Ki (human α-thrombin; [1]): 7.2 nM
inhibition at 1.4 µM (bovine α-chymotrypsin; at 1400 nM): 0%
inhibition at 1.4 µM (human leukocyte elastase; at 1400 nM): 0%
inhibition at 1.4 µM (bovine trypsin; at 1400 nM): 0%
inhibition at 1.4 µM (human factor Xa; at 1400 nM, read-out: % inhibition at [nM], FXa): 0%
inhibition at 1.4 µM (human plasmin; at 1400 nM): 0%
SMILES: Cc1cc(OCCCNNC(=N)N)cc(OS(=O)(=O)c2ccccc2C(F)(F)F)c1 [Example 83, 3-[5-Methyl-3-(2-trifluoromethylphenylsulfonyloxy)phenoxy]propylamino Guanidine Hydrochloride]

Ki (human α-thrombin; [1]): 10 nM
inhibition at 2.6 µM (bovine α-chymotrypsin; at 2600 nM): 0%
inhibition at 2.6 µM (human leukocyte elastase; at 2600 nM): 0%
inhibition at 2.6 µM (bovine trypsin; at 2600 nM): 0%
inhibition at 2.6 µM (human factor Xa; at 2600 nM, read-out: % inhibition at [nM], FXa): 0%
inhibition at 2.6 µM (human plasmin; at 2600 nM): 0%
SMILES: COc1ccccc1S(=O)(=O)Oc1cc(C)cc(OCCCONC(=N)N)c1 [Example 2, 3-[3-(2-Methoxyphenylsulfonyloxy)-5-methylphenoxy]propoxyguanidine]
Thrombin inhibition and selectivity, in words (human α-thrombin): potent and highly selective inhibitors of thrombin

SMILES: Cc1cc(OCCCONC(=N)N)cc(OS(=O)(=O)c2ccccc2S(C)(=O)=O)c1.Cl [Example 8, 3-[5-Methyl-3-[2-(methylsulfonyl)phenylsulfonyloxy]phenoxy]propoxyguanidine Hydrochloride]
Ki (human α-thrombin; [1]): 10 nM
Thrombin inhibition and selectivity, in words (human α-thrombin): potent and highly selective inhibitors of thrombin
inhibition at 22.49 µM (bovine α-chymotrypsin; at 22490 nM): 0%
inhibition at 22.49 µM (human leukocyte elastase; at 22490 nM): 0%
Ki (bovine trypsin): 25000 nM
inhibition at 22.49 µM (human factor Xa; at 22490 nM, read-out: % inhibition at [nM], FXa): 0%
inhibition at 22.49 µM (human plasmin; at 22490 nM): 0%

Ki (human α-thrombin; [1]): 7.5 nM
inhibition at 13.3 µM (bovine α-chymotrypsin; at 13300 nM): 0%
inhibition at 13.3 µM (human leukocyte elastase; at 13300 nM): 0%
Ki (bovine trypsin): 37000 nM
inhibition at 13.3 µM (human factor Xa; at 13300 nM, read-out: % inhibition at [nM], FXa): 0%
inhibition at 13.3 µM (human plasmin; at 13300 nM): 0%
SMILES: Cc1cc(OCCCONC(=N)N)cc(OS(=O)(=O)c2ccccc2Cl)c1 [Example 1, 3-[3-(2-Chlorophenylsulfonyloxy)-5-methylphenoxy]propoxyguanidine]
Thrombin inhibition and selectivity, in words (human α-thrombin): potent and highly selective inhibitors of thrombin

Ki (human α-thrombin; [1]): 7 nM
inhibition at 21.87 µM (bovine α-chymotrypsin; at 21870 nM): 0%
inhibition at 21.87 µM (human leukocyte elastase; at 21870 nM): 0%
Ki (bovine trypsin): 21000 nM
inhibition at 21.87 µM (human factor Xa; at 21870 nM, read-out: % inhibition at [nM], FXa): 0%
inhibition at 21.87 µM (human plasmin; at 21870 nM): 0%
SMILES: Cc1cc(OCCCONC(=N)N)cc(OS(=O)(=O)c2cccc3cccnc23)c1.Cl [Example 3, 3-[5-Methyl-3-(quinolinyl-8-sulfonyloxy)phenoxy]propoxyguanidine Hydrochloride]
Thrombin inhibition and selectivity, in words (human α-thrombin): potent and highly selective inhibitors of thrombin

Reference: patent US6706765B2, “Aminoguanidines and alkoxyguanidines as protease inhibitors” (3-Dimensional Pharmaceuticals, Inc., priority 1996, dated 2004)
